Measured values reported in patent US9434711B2 (Janssen Pharmaceutica, NV, priority 2007, dated 2016).

Target: canine TRPM8 (Canis lupus familiaris, UniProt Q1A7N1)
Test: In Vitro Canine TRPM8 Functional Assay (Ca2+ fluorescence, icilin activation)
Type: cell-based
Details: for IC50: HEK293 cells stably expressing canine TRPM8, icilin activation, eight-point dose-response, read-out: IC50; for inhibition at 0.2 µM: compound at 0.2 μM, read-out: % Inh @ 0.2; for inhibition at 0.2 µM / inhibition at 0.5 µM: canine TRPM8, icilin activation; for inhibition at 0.5 µM: compound at 0.5 μM, read-out: % Inh @ 0.5
How it was run: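 HEK293 cells stably expressing canine TRPM8 loaded with Calcium 3 dye; compound added and Ca2+ fluorescence monitored 5 min before icilin at a final level giving ~80% maximal response, read on FLIPR or FDSS. EC50 or IC50 from eight-point dose-response, quadruplicate wells per point.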

canine TRPM8, sequence (Q1A7N1 1-1104): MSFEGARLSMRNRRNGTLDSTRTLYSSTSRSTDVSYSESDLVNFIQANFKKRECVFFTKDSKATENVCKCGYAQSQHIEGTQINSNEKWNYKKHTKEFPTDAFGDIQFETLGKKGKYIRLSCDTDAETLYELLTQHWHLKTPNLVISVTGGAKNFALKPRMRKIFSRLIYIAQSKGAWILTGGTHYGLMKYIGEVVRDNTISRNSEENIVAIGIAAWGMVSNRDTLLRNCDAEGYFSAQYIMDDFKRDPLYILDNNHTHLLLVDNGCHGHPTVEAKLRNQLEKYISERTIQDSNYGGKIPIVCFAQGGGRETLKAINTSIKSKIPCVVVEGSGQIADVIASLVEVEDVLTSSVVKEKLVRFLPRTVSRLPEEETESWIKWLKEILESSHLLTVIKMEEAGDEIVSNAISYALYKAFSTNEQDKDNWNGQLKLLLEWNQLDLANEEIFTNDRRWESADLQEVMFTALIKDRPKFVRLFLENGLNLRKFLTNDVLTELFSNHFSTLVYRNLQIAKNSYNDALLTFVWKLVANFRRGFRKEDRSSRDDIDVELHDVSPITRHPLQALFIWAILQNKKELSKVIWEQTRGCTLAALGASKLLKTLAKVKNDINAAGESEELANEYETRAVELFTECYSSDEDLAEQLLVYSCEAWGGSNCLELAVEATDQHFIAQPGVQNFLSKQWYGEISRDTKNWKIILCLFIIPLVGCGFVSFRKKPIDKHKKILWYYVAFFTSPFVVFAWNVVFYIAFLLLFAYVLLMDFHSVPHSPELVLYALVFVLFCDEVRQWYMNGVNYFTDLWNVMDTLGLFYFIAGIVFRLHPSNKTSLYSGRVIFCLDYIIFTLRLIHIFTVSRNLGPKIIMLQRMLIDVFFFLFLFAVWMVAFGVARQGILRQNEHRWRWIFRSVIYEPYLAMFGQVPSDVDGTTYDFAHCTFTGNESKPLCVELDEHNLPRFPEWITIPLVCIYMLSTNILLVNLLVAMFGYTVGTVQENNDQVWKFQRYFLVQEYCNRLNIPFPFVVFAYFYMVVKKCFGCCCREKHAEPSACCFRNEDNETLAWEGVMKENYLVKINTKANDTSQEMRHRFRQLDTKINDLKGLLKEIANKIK

IC50 [nM] | inhibition at 0.2 µM [%] | inhibition at 0.5 µM [%] | Structure (SMILES)
19 | 93 |  | CCS(=O)(=O)N(CCC(F)(F)F)c1sc2ccccc2c1C [Compound 106, N-(3-Methyl-benzo[b]thiophen-2-yl)-N-(3,3,3-trifluoro-propyl)-ethanesulfonamide]
 | 72 |  | CC#CCCN(c1sc2ccccc2c1C)S(=O)(=O)CC [Compound 107, N-(3-Methyl-benzo[b]thiophen-2-yl)-N-(pent-3-ynyl)-ethanesulfonamide]
 | 71 |  | CCS(=O)(=O)N(CCSC)c1sc2ccccc2c1C [Compound 108, N-(3-Methyl-benzo[b]thiophen-2-yl)-N-(2-methylsulfanyl-ethyl)-ethanesulfonamide]
 | 14 |  | CCS(=O)(=O)N(C[C@@H]1CCC(=O)N1)c1sc2ccccc2c1C [Compound 109, N-(3-Methyl-benzo[b]thiophen-2-yl)-N-(5-oxo-(S)-pyrrolidin-2-ylmethyl)-ethanesulfonamide]
92 | 68 |  | CCS(=O)(=O)N(CC(F)F)c1sc2ccccc2c1C [Compound 111, N-(2,2-Difluoro-ethyl)-N-(3-methyl-benzo[b]thiophen-2-yl)-ethanesulfonamide]
30.2 | 95 |  | CCS(=O)(=O)N(CC1CC1)c1sc2ccccc2c1C [Compound 112, N-(Cyclopropylmethyl)-N-(3-methyl-benzo[b]thiophen-2-yl)-ethanesulfonamide]
 | 19 |  | CCS(=O)(=O)N(CCN1CCOCC1)c1sc2ccccc2c1C [Compound 113, N-(3-Methyl-benzo[b]thiophen-2-yl)-N-(2-morpholin-4-yl-ethyl)-ethanesulfonamide]
79.5 |  | 95 | O=S(=O)(c1ccccc1)N(CCc1ccccc1)c1cc2ccccc2s1 [Compound 115, N-(Benzo[b]thiophen-2-yl)-N-(phenethyl)-benzenesulfonamide]
102 |  | 98 | C=CCN(c1cc2ccccc2s1)S(=O)(=O)c1ccccc1 [Compound 116, N-(Allyl)-N-(benzo[b]thiophen-2-yl)-benzenesulfonamide]
 |  | 99 | CCCCN(c1cc2ccccc2s1)S(=O)(=O)c1ccccc1 [Compound 117, N-(Benzo[b]thiophen-2-yl)-N-(butyl)-benzenesulfonamide]
48 |  | 100 | O=S(=O)(c1ccccc1)N(CC1CCCCC1)c1cc2ccccc2s1 [Compound 118, N-(Benzo[b]thiophen-2-yl)-N-(cyclohexylmethyl)-benzenesulfonamide]
134 |  | 93 | O=S(=O)(c1ccccc1)N(c1cc2ccccc2s1)C1CCCCC1 [Compound 119, N-(Benzo[b]thiophen-2-yl)-N-(cyclohexyl)-benzenesulfonamide]
156 | 75 |  | CSCCN(c1cc2ccccc2s1)S(=O)(=O)c1ccccc1 [Compound 120, N-(Benzo[b]thiophen-2-yl)-N-(2-methylsulfanyl-ethyl)-benzenesulfonamide]
35 | 86 |  | CCCCN(c1sc2ccccc2c1C(C)=O)S(=O)(=O)CC [Compound 121, N-(3-Acetyl-benzo[b]thiophen-2-yl)-N-(butyl)-ethanesulfonamide]
 | 23 |  | CCS(=O)(=O)N(CC1CC1)c1sc2ccccc2c1C(C)=O [Compound 122, N-(3-Acetyl-benzo[b]thiophen-2-yl)-N-(cyclopropylmethyl)-ethanesulfonamide]
 | 14 |  | CCS(=O)(=O)N(CCN1CCOCC1)c1sc2ccccc2c1C(C)=O [Compound 124, N-(3-Acetyl-benzo[b]thiophen-2-yl)-N-(2-morpholin-4-yl-ethyl)-ethanesulfonamide]
 |  | 45 | Cc1c(N(Cc2ccc(F)c(F)c2)S(=O)(=O)Cc2ccccc2)sc2ccccc12 [Compound 126, N-(3,4-Difluoro-benzyl)-N-(3-methyl-benzo[b]thiophen-2-yl)-phenyl-methanesulfonamide]

IC50 [nM] | inhibition at 0.2 µM [%] | inhibition at 0.5 µM [%] | Structure (SMILES)
8 |  | 98 | Cc1c(N(Cc2ccc(F)c(F)c2)S(=O)(=O)c2cccc(F)c2)sc2ccccc12 [Compound 127, N-(3,4-Difluoro-benzyl)-N-(3-methyl-benzo[b]thiophen-2-yl)-3-fluoro-benzenesulfonamide]
9 |  | 99 | Cc1c(N(Cc2ccc(F)c(F)c2)S(=O)(=O)c2ccccc2F)sc2ccccc12 [Compound 128, N-(3,4-Difluoro-benzyl)-N-(3-methyl-benzo[b]thiophen-2-yl)-2-fluoro-benzenesulfonamide]
2.8 |  | 101 | Cc1c(N(Cc2ccc(F)c(F)c2)S(=O)(=O)c2cccs2)sc2ccccc12 [Compound 129, N-(3,4-Difluoro-benzyl)-N-(3-methyl-benzo[b]thiophen-2-yl)-thiene-2-ylsulfonamide]
104 |  | 98 | Cn1cnc(S(=O)(=O)N(Cc2ccc(F)c(F)c2)c2cc3ccccc3s2)c1 [Compound 130, N-(Benzo[b]thiophen-2-yl)-N-(3,4-difluoro-benzyl)-1-methyl-1H-imidazole-4-sulfonamide]
48 |  | 95 | O=S(=O)(c1cccc(F)c1)N(Cc1ccc(F)c(F)c1)c1cc2ccccc2s1 [Compound 131, N-(Benzo[b]thiophen-2-yl)-N-(3,4-difluoro-benzyl)-3-fluoro-benzenesulfonamide]
 |  | 56 | O=S(=O)(c1ccc(C(F)(F)F)cc1)N(Cc1ccc(F)c(F)c1)c1cc2ccccc2s1 [Compound 132, N-(Benzo[b]thiophen-2-yl)-N-(3,4-difluoro-benzyl)-4-trifluoromethyl-benzenesulfonamide]
60 |  | 97 | CS(=O)(=O)CS(=O)(=O)N(Cc1ccc(F)c(F)c1)c1cc2ccccc2s1 [Compound 133, N-(Benzo[b]thiophen-2-yl)-N-(3,4-difluoro-benzyl)-C-methanesulfonyl-methanesulfonamide]
 | 30 |  | COc1ccc(S(=O)(=O)N(Cc2ccc(F)c(C(F)(F)F)c2)c2cc3ccccc3s2)cc1 [Compound 134, N-(Benzo[b]thiophen-2-yl)-N-(4-fluoro-3-trifluoromethyl-benzyl)-4-methoxy-benzenesulfonamide]
 | 18 |  | COC(=O)c1ccc(S(=O)(=O)N(Cc2ccc(F)c(C(F)(F)F)c2)c2cc3ccccc3s2)cc1 [Compound 135, N-(Benzo[b]thiophen-2-yl)-N-(4-fluoro-3-trifluoromethyl-benzyl)-4-carbomethoxy-benzenesulfonamide]
 | 40 |  | COC(=O)c1cccc(S(=O)(=O)N(Cc2ccc(F)c(C(F)(F)F)c2)c2cc3ccccc3s2)c1 [Compound 136, N-(Benzo[b]thiophen-2-yl)-N-(4-fluoro-3-trifluoromethyl-benzyl)-3-carbomethoxy-benzenesulfonamide]
8 | 98 |  | COC(=O)c1cccc(S(=O)(=O)N(Cc2ccc(F)c(C(F)(F)F)c2)c2sc3ccccc3c2C)c1 [Compound 137, N-(3-Methyl-benzo[b]thiophen-2-yl)-N-(4-fluoro-3-trifluoromethyl-benzyl)-3-carbomethoxy-benzenesulfonamide]
13 | 83 |  | COC(=O)c1ccc(S(=O)(=O)N(Cc2ccc(F)c(C(F)(F)F)c2)c2sc3ccccc3c2C)cc1 [Compound 138, N-(3-Methyl-benzo[b]thiophen-2-yl)-N-(4-fluoro-3-trifluoromethyl-benzyl)-4-carbomethoxy-benzenesulfonamide]
62 | 91 |  | COC(=O)c1ccccc1S(=O)(=O)N(Cc1ccc(F)c(C(F)(F)F)c1)c1cc2ccccc2s1 [Compound 139, N-(Benzo[b]thiophen-2-yl)-N-(4-fluoro-3-trifluoromethyl-benzyl)-2-carbomethoxy-benzenesulfonamide]
2 |  | 98 | O=S(=O)(c1ccccc1)N(Cc1ccc(F)cc1)c1sc2ccccc2c1Br [Compound 140, N-(3-Bromo-benzo[b]thiophen-2-yl)-N-(4-fluoro-benzyl)-benzenesulfonamide]
 | 18 |  | COc1ccc2c(Br)c(N(Cc3ccc(F)c(F)c3)S(=O)(=O)c3cccnc3)sc2c1 [Compound 141, N-(3-Bromo-6-methoxy-benzo[b]thiophen-2-yl)-N-(3,4-difluoro-benzyl)-pyridin-3-yl-sulfonamide]
 |  | 60 | COc1cccc2cc(N(Cc3ccc(F)c(F)c3)S(=O)(=O)c3ccccc3)sc12 [Compound 142, N-(3,4-Difluoro-benzyl)-N-(7-methoxy-benzo[b]thiophen-2-yl)-benzenesulfonamide]
 |  | 48 | COc1cccc2c(Cl)c(N(Cc3ccc(F)c(F)c3)S(=O)(=O)c3ccccc3)sc12 [Compound 143, N-(3-Chloro-7-methoxy-benzo[b]thiophen-2-yl)-N-(3,4-difluoro-benzyl)-benzenesulfonamide]

Structure (SMILES) | IC50 [nM] | inhibition at 0.2 µM [%] | inhibition at 0.5 µM [%]
CCS(=O)(=O)N(CCOC(C)(C)C)c1sc2ccccc2c1C [Compound 110, N-(2-tert-Butoxy-ethyl)-N-(3-methyl-benzo[b]thiophen-2-yl)-ethanesulfonamide] | 7.2 | 97 | 
CCS(=O)(=O)N(CC1CCCN1C(=O)OC(C)(C)C)c1sc2ccccc2c1C (stereo not shown) [Compound 114, N-(3-Methyl-benzo[b]thiophen-2-yl)-N-{[1-(carbo-tert-butoxy)pyrrolidin-2-yl]-methyl}-ethanesulfonamide] | 51.1 | 93 | 
CCS(=O)(=O)N(CCOC(C)(C)C)c1sc2ccccc2c1C(C)=O [Compound 123, N-(3-Acetyl-benzo[b]thiophen-2-yl)-N-(2-tert-butoxy-ethyl)-ethanesulfonamide] |  | 60 | 
